Assay results as given in ChEMBL document CHEMBL5346905, “2,6-diazaspiro[3.4]octan-7-one derivatives as potent sigma-1 receptor antagonists that enhanced the antinociceptive effect of morphine and rescued morphine tolerance” (Eur J Med Chem, 2023).
Active and inactive are the calls of the source. No cut-off for these calls is given here.

Key:
[1] = target: T1, Sigma non-opioid intracellular receptor 1 (Cavia porcellus, UniProt Q60492); test: Displacement of [3H]-pentazocine from sigma1 receptor in guinea pig brain membrane at 1 uM by liquid scintillation counting analysis relative to control; assay type: cell membranes
T1 sequence (Q60492 whole entry): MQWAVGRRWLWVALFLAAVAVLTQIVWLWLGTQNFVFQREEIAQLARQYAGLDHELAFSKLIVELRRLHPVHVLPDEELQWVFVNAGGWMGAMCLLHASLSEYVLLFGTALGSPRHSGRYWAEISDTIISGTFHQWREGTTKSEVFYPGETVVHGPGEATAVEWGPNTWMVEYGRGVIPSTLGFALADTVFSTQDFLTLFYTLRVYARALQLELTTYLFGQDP

Mus musculus [2] = test: Antinociceptive activity in C57BL/6J mouse assessed as reduction in nociceptive response at 30 mg/kg, ip measured after 30 mins by hot plate test; assay type: functional, organism-based
[3] = target: Sigma intracellular receptor 2 (Homo sapiens, UniProt Q5BJF2); test: Antagonist activity at sigma2 receptor (unknown origin)
Sequence of Sigma intracellular receptor 2 (Q5BJF2 whole entry): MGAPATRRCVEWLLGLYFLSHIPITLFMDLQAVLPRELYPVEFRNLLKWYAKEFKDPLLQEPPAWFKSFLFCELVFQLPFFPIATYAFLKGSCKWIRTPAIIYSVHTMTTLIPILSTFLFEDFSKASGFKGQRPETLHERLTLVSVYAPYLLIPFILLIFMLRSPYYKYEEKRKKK

[4] = Observed AUC(0 to infinity) in C57BL/6J mouse at 10 mg/kg, ip measured after 24 hrs by LC-MS/MS analysis; assay type: ADME, organism-based; set-up: time 24 hrs, dose 10 mg/kg, route ip; conditions: in vivo
Mus musculus [5] = test: Antinociceptive activity in C57BL/6J mouse assessed as reduction in morphine-induced nociceptive response by measuring morphine ED50 at 30 mg/kg, ip pre-administered with compound followed by morphine addition measured after 30 mins by hot plate test (reference value: 4.3 mg/kg); assay type: functional
Mus musculus [6] = test: Synergistic antinociceptive activity in C57BL/6J mouse assessed as reduction in morphine-induced nociceptive response at 30 mg/kg, ip pre-administered with compound followed by morphine addition measured after 30 mins in presence of naloxone by hot plate test; assay type: functional, organism-based
[7] = Drug concentration in plasma of C57BL/6J mouse at 10 mg/kg, ip measured after 1 hrs by LC-MS/MS analysis; assay type: ADME, organism-based
Mus musculus [8] = test: Reversal of morphine tolerance in morphine tolerant C57BL/6J mouse assessed as maximum possible effect of antinociception at 30 mg/kg, ip pre-treated with morphine followed by compound addition on day 4 by hot plate test (reference value: 5.4%); assay type: functional
[9] = Ratio of drug concentration in brain to plasma in C57BL/6J mouse at 10 mg/kg, ip measured after 4 hrs by LC-MS/MS analysis; assay type: ADME, organism-based; conditions: read-out: BPR
Mus musculus [10] = test: Reversal of morphine tolerance in morphine tolerant C57BL/6J mouse assessed as maximum possible effect of antinociception at 30 mg/kg, ip pre-treated with morphine followed by compound addition on day 4 in presence of PRE-084 by hot plate test; assay type: functional, organism-based
[11] = Cmax in C57BL/6J mouse at 10 mg/kg, ip measured after 24 hrs by LC-MS/MS analysis; assay type: ADME, organism-based; set-up: time 24 hrs, dose 10 mg/kg, route ip; conditions: in vivo
[12] = Drug concentration in brain of C57BL/6J mouse at 10 mg/kg, ip measured after 1 hrs by LC-MS/MS analysis; assay type: ADME, organism-based; conditions: read-out: Drug uptake
[13] = target: Sigma non-opioid intracellular receptor 1 (Homo sapiens, UniProt Q99720); test: Antagonist activity at sigma1 receptor (unknown origin)
Sequence of Sigma non-opioid intracellular receptor 1 (Homo sapiens, UniProt Q99720) (Q99720 whole entry): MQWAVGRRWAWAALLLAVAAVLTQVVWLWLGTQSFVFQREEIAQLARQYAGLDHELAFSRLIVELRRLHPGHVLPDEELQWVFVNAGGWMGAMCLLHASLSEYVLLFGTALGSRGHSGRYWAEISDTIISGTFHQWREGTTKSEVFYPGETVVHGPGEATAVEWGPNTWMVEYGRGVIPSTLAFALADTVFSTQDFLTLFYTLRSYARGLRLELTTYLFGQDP

[14] = Observed MRT(0 to infinity) in C57BL/6J mouse at 10 mg/kg, ip measured after 24 hrs by LC-MS/MS analysis; assay type: ADME, organism-based; conditions: in vivo
[15] = Half life in C57BL/6J mouse at 10 mg/kg, ip measured after 24 hrs by LC-MS/MS analysis; assay type: ADME, organism-based; conditions: in vivo
[16] = Tmax in C57BL/6J mouse at 10 mg/kg, ip measured after 24 hrs by LC-MS/MS analysis; assay type: ADME, organism-based; conditions: in vivo
[17] = Ratio of drug concentration in brain to plasma in C57BL/6J mouse at 10 mg/kg, ip measured after 1 hrs by LC-MS/MS analysis; assay type: ADME, organism-based; conditions: read-out: BPR
Mus musculus [18] = test: Synergistic antinociceptive activity in C57BL/6J mouse assessed as reduction in morphine-induced nociceptive response at 30 mg/kg, ip pre-administered with compound followed by morphine addition measured after 30 mins in presence of PRE-084 by hot plate test; assay type: functional, organism-based
[19] = target: T1, Sigma non-opioid intracellular receptor 1; test: Displacement of [3H]-pentazocine from sigma1 receptor in guinea pig brain membrane assessed as inhibition constant in presence of phenytoin by liquid scintillation counting analysis; assay type: cell membranes
[20] = Drug concentration in brain of C57BL/6J mouse at 10 mg/kg, ip measured after 4 hrs by LC-MS/MS analysis; assay type: ADME, organism-based; conditions: read-out: Drug uptake
[21] = AUClast in C57BL/6J mouse at 10 mg/kg, ip measured after 24 hrs by LC-MS/MS analysis; assay type: ADME, organism-based; set-up: time 24 hrs, dose 10 mg/kg, route ip; conditions: in vivo
[22] = target: Mu-type opioid receptor (Homo sapiens) (UniProt P35372); test: Displacement of [3H]-DAMGO from human MOR expressed in CHO cells at 1 uM incubated for 90 mins by beta-scintillation counting analysis; assay type: cell-based
Sequence of Mu-type opioid receptor (Homo sapiens) (P35372 whole entry): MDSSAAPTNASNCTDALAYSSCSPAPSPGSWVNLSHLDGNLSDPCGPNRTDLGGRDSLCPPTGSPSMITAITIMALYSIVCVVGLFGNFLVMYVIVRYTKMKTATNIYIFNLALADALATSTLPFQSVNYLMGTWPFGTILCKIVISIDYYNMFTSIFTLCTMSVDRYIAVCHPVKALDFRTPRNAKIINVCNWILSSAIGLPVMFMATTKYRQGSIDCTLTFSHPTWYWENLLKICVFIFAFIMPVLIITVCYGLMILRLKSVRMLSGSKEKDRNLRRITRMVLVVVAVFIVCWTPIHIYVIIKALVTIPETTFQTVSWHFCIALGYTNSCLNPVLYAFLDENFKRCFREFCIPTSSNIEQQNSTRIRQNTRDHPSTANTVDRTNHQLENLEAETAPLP

Mus musculus [23] = test: Antinociceptive activity in ip dosed C57BL/6J mouse assessed as reduction in morphine-induced nociceptive response pre-administered with compound followed by morphine addition measured after 30 mins by hot plate test; assay type: functional, organism-based; conditions: dose 0-60 mg/kg
[24] = Drug concentration in plasma of C57BL/6J mouse at 10 mg/kg, ip measured after 4 hrs by LC-MS/MS analysis; assay type: ADME, organism-based
Mus musculus [25] = test: Synergistic antinociceptive activity in C57BL/6J mouse assessed as reduction in morphine-induced nociceptive response upto 60 mg/kg, ip pre-administered with compound followed by morphine addition measured after 30 mins by hot plate test; assay type: functional, organism-based

Compound: O=C1CC2(CN(CCC3CCCCC3)C2)CN1c1ccc(F)cc1
- Ki [1]: 0.0388 µM

Compound: O=C1CC2(CN(CCCc3ccccc3)C2)CN1Cc1ccccc1
- Ki [1]: 0.0837 µM

Compound: O=C1CC2(CN(CCc3ccccc3)C2)CN1c1ccccc1
- Ki [1]: 0.175 µM

Compound: CC(Cc1ccccc1)N1CC2(CC(=O)N(c3ccc(F)cc3)C2)C1 (stereo not given)
- Ki [1]: 0.181 µM

Compound: Cc1ccc(CCCN2CC3(CC(=O)N(c4ccccc4)C3)C2)cc1
- Activity (Mus musculus [2]): inactive
- IC50 [3]: 0.227 µM
- AUC(0-inf) [4]: 2290 ng·h/mL
- ED50 (Mus musculus [5]; 0.5 h): 2.3 mg/kg
- Activity (Mus musculus [6]): inactive
- concentration at 1 h [7]: 513 ng/mL
- MPE (Mus musculus [8]): 70.5%
- Kp at 4 h [9]: 7.8
- Activity (Mus musculus [10]): inactive
- Cmax [11]: 990 ng/mL
- concentration at 1 h [12]: 3790 ng/g
- IC50 [13]: 0.0191 µM
- MRT inf [14]: 2.08 h
- half-life [15]: 1.42 h
- Tmax [16]: 0.25 h
- Kp at 1 h [17]: 7.38
- Activity (Mus musculus [18]): inactive
- Ki [19]: 0.0372 µM
- concentration at 4 h [20]: 609 ng/g
- Ki [1]: 0.0145 µM
- AUC(0-t) at 24 h [21]: 2240 ng·h/mL
- Activity [22]: 16.5%
- Activity (Mus musculus [23]): Dose-Dependent Effect
- concentration at 4 h [24]: 78 ng/mL

Compound: Cc1cc(OCCN2CCOCC2)nn1-c1ccc2ccccc2c1
- Activity (Mus musculus [25]): inactive
- Activity (Mus musculus [5]): inactive
- Activity (Mus musculus [8]): inactive
- Ki [1]: 0.0129 µM

Compound: O=C1CC2(CN(CCc3cccc(F)c3)C2)CN1c1ccccc1
- Ki [1]: 0.393 µM

Compound: O=C1CC2(CN(CCCc3ccccc3)C2)CN1c1ccc(F)cc1
- Ki [1]: 0.0349 µM

Compound: Cc1ccc(N2CC3(CC2=O)CN(CCCc2ccccc2)C3)cc1
- Ki [1]: 0.0683 µM

Compound: Cc1cccc(CCCN2CC3(CC(=O)N(c4ccccc4)C3)C2)c1
- Ki [1]: 0.033 µM

Compound: Cc1cccc(N2CC3(CC2=O)CN(CCCc2ccccc2)C3)c1
- Ki [1]: 0.0497 µM

Compound: O=C1CC2(CN(CCc3ccc4ccccc4c3)C2)CN1c1ccccc1
- Ki [1]: 0.0604 µM

Compound: O=C1CC2(CN(CCC3CCCCC3)C2)CN1c1ccccc1
- Ki [1]: 0.0427 µM

Compound: O=C1CC2(CN(CCCc3ccccc3)C2)CN1c1ccccc1
- Ki [1]: 0.0487 µM

Compound: Cc1cccc(CCN2CC3(CC(=O)N(c4ccc(F)cc4)C3)C2)c1
- Ki [1]: 0.0476 µM

Compound: O=C1CC2(CN(CCCc3ccc(F)cc3)C2)CN1c1ccccc1
- Ki [1]: 0.0168 µM

Compound: CC(Cc1ccccc1)N1CC2(CC(=O)N(c3ccccc3)C2)C1 (stereo not given)
- Ki [1]: 0.0405 µM

Compound: O=C1CC2(CN(CCCc3ccccc3F)C2)CN1c1ccccc1
- Ki [1]: 0.0445 µM

Compound: O=C1CC2(CN(CCCc3cccc(F)c3)C2)CN1c1ccccc1
- Ki [1]: 0.0268 µM
